“Also recorded” adds a separate entry of the source.

Data on five compounds can be found in US20250177303A1, “A DRUG NANOCARRIER SYSTEM TO DELIVER A COMBINATION OF TLR AGONISTS AND/OR A LIPOXIN PLUS IMMUNOGENIC CELL DEATH INDUCING CHEMOTHERAPEUTIC AGENTS FOR CANCER IMMUNOTHERAPY” (The Regents of the University of California, priority 2022, published 2025).

The conditions of series [1]: cited from earlier work.
The test system of another series is TGF-β activated hPSCs. Put plainly: IL-6 secretion from TGF-β activated human pancreatic stellate cells (ELISA). The series is classed as cell-based. As to conditions: 1-100 nM LXA4, 48 h, TGF-β 20 ng/mL. The method, then:
HPaSteCs were seeded at 2500 cells/well in a 96-well plate and activated with TGF-p (20 ng/mL) overnight. The next day, hPSCs were treated with 1-100 nM of LXA4 in free and liposomal form. After 48 h of incubation, the supernatant was collected and analysed for IL-6 secretion with ELISA. […] A possible explanation is provided by the schematic in FIG. 11, panel A.
For orientation: An ELISA detects its analyte on a solid surface through an enzyme-linked reagent.

The test system of series [2] is LN-resident dendritic cells (LN-DCs). Put plainly: Subcutaneous KPC tumor model, flow cytometry of inguinal lymph node dendritic cells. To be noted: inguinal lymph nodes. The series is classed as in vivo, B6129SF1/J mice. An excerpt:
Subcutaneous tumor implantation in the rear animal flank allows lymphatic drainage to the regional inguinal lymph nodes (LNs), which were harvested to assess therapeutic impact on LN-resident dendritic cells (LN-DCs). This reasoning is premised on the possibility that LN participation in the cancer immunity cycle may be able to strengthen the ICD response by increasing recruitment of newly-activated cytotoxic T-cells back to the principal tumor site. Following inguinal LN harvesting and cellular release, initial flow cytometry gating selected singlet live cells (FIG. 26). Further gating on the CD11c^+/CD45^+ DC subset was used to quantify CD80 and CD86 expression, representative of the surface receptors on an activated DC subset, participating in T-cell activation. […] We also obtained evidence that the response boosting involves LNDC participation as a key component of the cancer immunity cycle.
Following animal sacrifice, photographs were obtained of the harvested tumors, which were subsequently fixed in 10% formalin for IHC staining by the UCLA Translational Pathology Core Laboratory. Image processing was performed using Aperio ImageScope software (Leica). IHC analysis was performed to assess tumor staining intensity for CD8 and FoxP3. Additionally, we assessed the immune response in the draining inguinal lymph nodes (LNs) harvested from the sacrificed animals. […]
(A flow cytometer gives signals particle by particle.)

In series [3] the test system is subcutaneous KPC tumor. Put plainly: Subcutaneous KPC tumor model, tumor growth (3M-052/IRIN carriers). As to conditions: for Inhibition of tumor growth compared to saline: day 20, p<0.001.
Description: The schematic in FIG. 6, panel A depicts the treatment outline for conducting the subcutaneous KPC tumor experiment. […] Tumor-bearing mice were randomly divided into 5 groups (n=6 or 7), which received IV administration of the different treatment modalities, every 3-4 days on 4 occasions. […] IRIN was administered at 40 mg/kg while the 3M-052 dose was delivered at 2 mg/kg. FIG. 6, panel B, depicts the average subcutaneous KPC tumor growth kinetics, as determined by tumor volume. Tumor size was measured every 2 days, and tumor volume was calculated by the formula: tumor volume (mm^3)=(length in mm)×(width in mm)^2/2.
KPC cells were subcutaneously injected into the right flank of female B6129SF1/J mice for in vivo experimentation. […] Subcutaneous tumor sizes were monitored every 2 days.
In series [4] the test system is murine bone marrow-derived dendritic cells (BMDCs). Put plainly: BMDC activation (flow cytometry, IL-12p40 and TNF-α ELISA). In kind it is cell-based. As to conditions: 10 μM, 21 h. How it is done:
(§1) Having confirmed effective intracellular delivery of TLR7 activation, the next task was to determine the effect of the 3M-silicasome in the ex vivo activation of macrophages and DCs. These assays were performed in RAW264.7 macrophages and murine bone marrow-derived dendritic cells (BMDCs). RAW264.7 and BMDCs were treated with 10 μM each of R848 (positive control), free 3M-052, or the 3M-silicasome for 21 hours before assessing CD80 expression (FIG. 16, panels C and E). […] We also quantified the release of two key pro-inflammatory cytokines, IL-12p40 and TNF-α by ELISA in the same cell types, using similar stimuli.
Bone marrow-derived dendritic cells (BMDCs) were prepared according to our established procedure, with a slight modification.^[42] Bone marrow cells flushed from the femur and tibia of B6/129 mice were collected and red blood cells were lysed by incubating in ACK Lysing Buffer. […]
(§2) For flow cytometry analysis of surface markers, cells were washed with cell staining buffer, before staining RAW264.7 cells with anti-CD80 or BMDCs with FITC-conjugated anti-CD11c and anti-CD80 on ice, according to the manufacturer's instructions. The assessment of the differentiation and activation markers were evaluated by flow cytometry (LSRFortessa; BD Biosciences), analyzed by FlowJo software.

Series [5] is described as follows: Subcutaneous KPC tumor model, body weight and blood parameters (safety). The series is classed as in vivo, B6129SF1/J mice. As to conditions: blood on day 21, 4 IV injections, 3M-052 2 mg/kg, IRIN 40 mg/kg. The method, then: Table 10. A subcutaneous KPC tumor model was established in B6129SF1/J mice. […] Blood was collected from the sacrificed animals on day 21. The biochemical parameters were assayed by UCLA Division of Laboratory Animal Medicine (DLAM) diagnostic laboratory services. These parameters include white blood cell (WBC), alkaline phosphatase (ALP), aspartate aminotransferase (AST), alanine aminotransferase (ALT), blood urea nitrogen (BUN), creatinine, calcium, and phosphorus.
A subcutaneous KPC tumor model was established in immunocompetent B6129SF1/J mice, using protocols approved by the UCLA Animal Research Committee. Briefly, 100 μL of a DMEM/Matrigel (1:1 v/v) suspension, containing 1×10^6 KPC cells, was subcutaneously injected into the right flank of female B6129SF1/J mice, 8-10 weeks old. […] Injections were given every 3-4 days, using the dosing schedule that delivers the equivalent of 2 mg/kg and 40 mg/kg, respectively, for 3M-052 and IRIN. Subcutaneous KPC tumor size and animal weight were monitored every 2 days. The tumor size was calculated according to the formula: (Width^2×Length)/2.
We also collected blood for separating serum after centrifugation at 3500 rpm for 20 min. The following biochemical parameters were assayed by UCLA Division of Laboratory Animal Medicine (DLAM) diagnostic laboratory services: white blood cell (WBC), alkaline phosphatase (ALP), aspartate aminotransferase (AST), alanine aminotransferase (ALT), blood urea nitrogen (BUN), creatinine, calcium, and phosphorus.

A further series concerns RAW264.7 macrophages. Put plainly: RAW264.7 macrophage activation (CD80 flow cytometry, IL-12p40 and TNF-α ELISA). In kind it is cell-based, murine. As to conditions: RAW264.7, 10 μM, 21 h. How it is done: as §1
RAW264.7 cells (1×10^5 cells/well) were cultured in 48-well plates for 24 h, before the addition of PBS or 10 μM concentrations of R848, free 3M-052 or the 3M-silicasome for a further 21 h. Immature BMDCs (5×10^5 cells/well) were cultured in 24-well plates, receiving the same dose of R848, free 3M-052, and 3M-silicasome for 21 h. […]
as §2

Series [6] is described as follows: Pharmacokinetics of 3M-052 and IRIN in plasma (HPLC). To be noted: single IV, 3M-052 2 mg/kg, IRIN 40 mg/kg. The series is classed as in vivo, healthy B6129SF1/J mice.
Description: Free 3M-052 and IRIN were extracted by methanol and measured by HPLC.
The harvested tumor and organ samples, collected in the drug biodistribution experiment, were weighed and homogenized. The collected plasma, tumor, and organ homogenates were extracted in methanol, using 1:5, 1:4, and 1:3 v/v dilutions, respectively. The extracts were vortexed for 20 s and centrifuged at 13000 rpm for 10 min, following which the drug-containing supernatants were filtrated through 0.22 μm filters to perform HPLC analysis. The HPLC system is operated by a Knauer Smartline Pneumatic Pump, C18 column, K-2600 spectrophotometer, and Gina data acquisition software. The mobile phase consisted of mobile phase A (0.01% trifluoroacetic acid in water) and mobile phase B (0.01% trifluoroacetic acid in methanol) as 70% A and 30% B (v/v). A 20 μL of the sample was injected to measure the 3M-052 and IRIN absorptions at 320 and 360 nm. The 3M-052 and IRIN standard curves were generated over the maximal concentrations of 40 and 100 μg/mL respectively.
The subject of series [7] is subcutaneous KPC tumor. Briefly: IHC of T lymphocytes and perforin in KPC tumors (lipo-LXA4-IRIN study). In kind it is in vivo, B6129SF1/J mice. As to conditions: normalized over no treatment control.
For a further series, the system named is orthotopic KPC-luc tumor. Briefly: Orthotopic KPC-luc tumor model, efficacy (IVIS bioluminescence, tumor weight, metastasis). The series is classed as in vivo, B6129SF1/J mice.
For the next series, the system named is KPC cells. Briefly: In vitro killing of KPC cells, CCK-8 assay. The series is classed as cell-based, murine. To be noted: 50-500 μM IRIN, 48 h. The method, then: 20 μL of CCK-8 solution was added to each well and the plates were incubated for an additional 1-2 h in an incubator. The absorbance of each well was assessed at 450 nm in a microplate reader. Cytotoxicity (% dead cells) was calculated using the formula: (ODsample−ODblank)/(ODcontrol−ODblank)×100.
(In general: Formazan colour is commonly taken as a measure of viable cells.)

Description for orthotopic KPC-luc tumor: FIG. 8, panel A, depicts the experimental outline of the study conducted by orthotopic implantation KPC-luc tumor cells in the pancreatic tail of syngeneic mice. In brief, 50 μL of PBS/Matrigel (6:4 v/v), containing 0.8×10^6 KPC-luc cells was orthotopically injected into the tail of the pancreas of female B6129SF1/J mice 8 days before the onset of treatment. […] FIG. 8, panel C depicts the average quantitative tumor bioluminescence in each group at day 21, as calculated by IVIS software. **p<0.01.
Mice were sacrificed on day 21. FIG. 8, panel D, depicts the IVIS imaging performed on the ex vivo explanted tumor tissues and potential metastatic organs on day 21. […] FIG. 8, panel G depicts animal body weights over a time period of 21 days.
50 μL of a DMEM/Matrigel (6:4 v/v) suspension, containing 8×10^5 KPC-luc cells, was injected into the tail of the pancreas in female B6129SF1/J mice by a survival surgery procedure. […] The dose equivalents of 3M-052 and IRIN were 2 mg/kg and 40 mg/kg per dose, respectively. Animal weight was monitored every 2 days.
To perform the bioluminescence imaging of the luciferase-expressing tumors, mice were injected intraperitoneal with 50 mg/kg D-Luciferin on day 7, 15, 18, and 21. Ex vivo IVIS images of tumors and major organs, collected from sacrificed animals, were obtained on day 21. In addition, we also obtained photographs and weighed the harvested tumors, which were subsequently fixed in 10% formalin for the performance of IHC staining.

With `O=C1c2c(O)ccc(O)c2C(=O)c2c(NCCNCCO)ccc(NCCNCCO)c21` [mitoxantrone], the Water solubility in series [1] (drugbank) was 89 mg/mL.

On to `CCCCC[C@H](O)/C=C/C=C\C=C\C=C\[C@@H](O)[C@@H](O)CCCC(=O)O` [LXA4, lipoxin A4], for which the IL-6 release result in the series with TGF-β activated hPSCs is listed as “significantly inhibited IL-6 release in a concentration-dependent manner”.

On to `CCCCCCCCCCCCCCCCCC(=O)NCCCCOn1c(CCCC)nc2c(N)nc3ccccc3c21` [free 3M-052, Telratolimod], for which the “CD80 and CD86 expression in CD11c+/CD45+ population” value in series [2] (4 rounds of treatment) is recorded as “up-regulated”. The “Percentage of CD45+/CD11c+ LN-DCs” value in series [2] (day 21, compared to saline and free IRIN) was “increase in the percentage of CD45^+/CD11c^+ LN-DCs”. Further, in the series with subcutaneous KPC tumor [3] (IV every 3-4 days x4, 3M-052 2 mg/kg, IRIN 40 mg/kg), the “Effect on tumor volume growth” value is “modest effects”. Besides, in the series on subcutaneous KPC tumor [3], the “Inhibition of tumor growth compared to saline” value is listed as “statistically significant compared to the saline control”. In addition, the “Inhibition of tumor growth compared between treatments” value in the series with subcutaneous KPC tumor [3] (tumor volume, comparison among treatment groups) was “significantly reduced compared to treatment with single-drug or dual-drug silicasomes”. In series [4], the “CD80 cell surface expression” value was “significant increase in cell surface expression of a maturation marker”. For the same compound, the “IL-12p40 and TNF-α release” value in series [4] (ELISA) is given as “higher responses”. In series [5], this compound registered an ALP of 64.3 ± 7.6 U/L, an ALT of 32.3 ± 11.9 U/L, an AST of 95.0 ± 14.0 U/L and a BUN of 16.0 ± 2.0 mg/dL. Moreover, in series [5], the Calcium came to 8.7 ± 0.2 mg/dL, the Creatinine came out at 0.0 ± 0.0 mg/dL, the Phosphorous came out at 7.2 ± 1.3 mg/dL and the WBC is reported as 3.5 ± 0.1 10^3/μL. Moreover, in the series on RAW264.7 macrophages, the “CD80 cell surface expression” value was “significant increase in cell surface expression of a maturation marker”. For the same compound, the “IL-12p40 and TNF-α release” value with RAW264.7 macrophages (ELISA) is recorded as “higher responses”. Also, the “Clearance from the blood circulation” value in series [6] is given as “rapidly cleared”.

As to `CC(=O)O[C@@]12CO[C@@H]1C[C@H](O)[C@@]1(C)C(=O)[C@H](O)C3=C(C)[C@@H](OC(=O)[C@H](O)[C@@H](NC(=O)OC(C)(C)C)c4ccccc4)C[C@@](O)([C@@H](OC(=O)c4ccccc4)[C@H]21)C3(C)C` [docetaxel], the Ethanol solubility in series [1] is given as approximately 100 mg/mL.

For `CCc1c2c(nc3ccc(OC(=O)N4CCC(N5CCCCC5)CC4)cc13)-c1cc3c(c(=O)n1C2)COC(=O)[C@]3(O)CC` [free IRIN, Irinotecan], in the series with subcutaneous KPC tumor [3], the “Inhibition of tumor growth compared to saline” value was “statistically significant compared to the saline control”. In [5], the ALP is given as 91.0 ± 1.7 U/L, the AST was 66.3 ± 22.2 U/L, the BUN turned out to be 17.0 ± 1.0 mg/dL and the Calcium was 8.9 ± 0.1 mg/dL. In [5], the Creatinine was determined as 0.0 ± 0.1 mg/dL, the Phosphorous is recorded as 7.4 ± 0.5 mg/dL and the WBC is 3.9 ± 0.5 10^3/μL. Also, the Perforin signal result in the series on subcutaneous KPC tumor [7] was “increase in the perforin levels compared to the no-treatment control”. The Tumor bioluminescence intensity result in the series on orthotopic KPC-luc tumor (day 21, IV every 3 days x4, compared to saline or free IRIN) is “little effect on orthotopic tumors”. Further, in the series with orthotopic KPC-luc tumor (ex vivo IVIS imaging, day 21), the “Metastatic spread to surrounding organs” value is given as “same metastatic burden; also recorded: evidence for splenic involvement”. In the series with KPC cells, the “Cytotoxicity to KPC cells” value is reported as “dose-dependent cytotoxicity, with a steeper decline in viability”.
